This is an account of results in patent US8871753B2, “Macrocyclic compounds and their use as kinase inhibitors” (Incyte Corporation, priority 2008, dated 2014).

What all share (type): biochemical
Test [1] deals with T1, human JAK1 (a.a. 837-1142) (Homo sapiens, UniProt P23458).
T1 construct: human JAK1 (a.a. 837-1142); His tag (N); made in house; host or cells: insect cells (baculovirus)
The test is described as follows: In vitro JAK kinase assay (HTRF, phosphorylation of a biotinylated peptide), JAK1. To be noted: read-out: JAK1 IC50. A digest of the protocol:
(§1)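 Kinase reactions ran at room temperature for 1 h with ATP matched per isoform (JAK1 90 μM, JAK2 30 μM, JAK3 3 μM). After an EDTA stop, the phosphorylated biotin-peptide was read by HTRF using Eu-Py20 and SA-APC after 40 min binding.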

Test [2] deals with T2, human JAK2 (a.a. 828-1132) (Homo sapiens, UniProt O60674).
T2 construct: JAK2 (a.a. 828-1132); His tag (N); made in house; host or cells: insect cells (baculovirus)
The experiment in a line: In vitro JAK kinase assay (HTRF, phosphorylation of a biotinylated peptide), JAK2. A digest of the protocol: as §1
(Time-resolved FRET reads energy transfer from a long-lived donor to a nearby acceptor.)

The target in test [3] is T3, human JAK3 (a.a. 781-1124) (Homo sapiens, UniProt P52333).
T3 construct: JAK3 (a.a. 781-1124); His tag (N); made in house; host or cells: insect cells (baculovirus)
The test is described as follows: In vitro JAK kinase assay (HTRF, phosphorylation of a biotinylated peptide), JAK3. A digest of the protocol:
as §1

For a further test, the target named is TYK2 (Homo sapiens, UniProt P29597). The experiment in a line: TYK2 kinase inhibition (Table A1).
Test [4] deals with T4, Recombinant Human Anaplastic Lymphoma Kinase (Homo sapiens, UniProt Q9UM73).
T4 construct: purchased Invitrogen, Carlsbad, Calif
The experiment in a line: ALK HTRF kinase assay. Particulars: for IC50: Table B1, cells without percent sign. A digest of the protocol: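 IC50 was obtained from a logistic fit of signal versus log inhibitor concentration, using pre- and post-transition baselines and a Hill slope. The signal reported tyrosine phosphorylation of a biotinylated peptide by recombinant human kinase, detected as Eu-to-APC energy transfer.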

[5] abbreviates: method AA1 (90 μM ATP) or AA2 (1000 μM ATP), not stated per value.
Setting [6] is: method AA1 (30 μM ATP) or AA2 (1000 μM ATP), not stated per value.
Setting [7] is: method AA1 (3 μM ATP) or AA2 (1000 μM ATP), not stated per value.
The mark [8] stands for this setting: compound at 500 nM or 1 mM, 90 μM ATP.
[9] abbreviates: compound at a concentration of 500 nM or 1 mM (not specified), cells shown as percentage.

The structures appear in SMILES notation. Where a name gives a salt, the structure may show the parent alone. Read-outs that look alike come from different tables or passages of the source. Bounds are passed on as bounds.

T4 sequence (Q9UM73 19-1620): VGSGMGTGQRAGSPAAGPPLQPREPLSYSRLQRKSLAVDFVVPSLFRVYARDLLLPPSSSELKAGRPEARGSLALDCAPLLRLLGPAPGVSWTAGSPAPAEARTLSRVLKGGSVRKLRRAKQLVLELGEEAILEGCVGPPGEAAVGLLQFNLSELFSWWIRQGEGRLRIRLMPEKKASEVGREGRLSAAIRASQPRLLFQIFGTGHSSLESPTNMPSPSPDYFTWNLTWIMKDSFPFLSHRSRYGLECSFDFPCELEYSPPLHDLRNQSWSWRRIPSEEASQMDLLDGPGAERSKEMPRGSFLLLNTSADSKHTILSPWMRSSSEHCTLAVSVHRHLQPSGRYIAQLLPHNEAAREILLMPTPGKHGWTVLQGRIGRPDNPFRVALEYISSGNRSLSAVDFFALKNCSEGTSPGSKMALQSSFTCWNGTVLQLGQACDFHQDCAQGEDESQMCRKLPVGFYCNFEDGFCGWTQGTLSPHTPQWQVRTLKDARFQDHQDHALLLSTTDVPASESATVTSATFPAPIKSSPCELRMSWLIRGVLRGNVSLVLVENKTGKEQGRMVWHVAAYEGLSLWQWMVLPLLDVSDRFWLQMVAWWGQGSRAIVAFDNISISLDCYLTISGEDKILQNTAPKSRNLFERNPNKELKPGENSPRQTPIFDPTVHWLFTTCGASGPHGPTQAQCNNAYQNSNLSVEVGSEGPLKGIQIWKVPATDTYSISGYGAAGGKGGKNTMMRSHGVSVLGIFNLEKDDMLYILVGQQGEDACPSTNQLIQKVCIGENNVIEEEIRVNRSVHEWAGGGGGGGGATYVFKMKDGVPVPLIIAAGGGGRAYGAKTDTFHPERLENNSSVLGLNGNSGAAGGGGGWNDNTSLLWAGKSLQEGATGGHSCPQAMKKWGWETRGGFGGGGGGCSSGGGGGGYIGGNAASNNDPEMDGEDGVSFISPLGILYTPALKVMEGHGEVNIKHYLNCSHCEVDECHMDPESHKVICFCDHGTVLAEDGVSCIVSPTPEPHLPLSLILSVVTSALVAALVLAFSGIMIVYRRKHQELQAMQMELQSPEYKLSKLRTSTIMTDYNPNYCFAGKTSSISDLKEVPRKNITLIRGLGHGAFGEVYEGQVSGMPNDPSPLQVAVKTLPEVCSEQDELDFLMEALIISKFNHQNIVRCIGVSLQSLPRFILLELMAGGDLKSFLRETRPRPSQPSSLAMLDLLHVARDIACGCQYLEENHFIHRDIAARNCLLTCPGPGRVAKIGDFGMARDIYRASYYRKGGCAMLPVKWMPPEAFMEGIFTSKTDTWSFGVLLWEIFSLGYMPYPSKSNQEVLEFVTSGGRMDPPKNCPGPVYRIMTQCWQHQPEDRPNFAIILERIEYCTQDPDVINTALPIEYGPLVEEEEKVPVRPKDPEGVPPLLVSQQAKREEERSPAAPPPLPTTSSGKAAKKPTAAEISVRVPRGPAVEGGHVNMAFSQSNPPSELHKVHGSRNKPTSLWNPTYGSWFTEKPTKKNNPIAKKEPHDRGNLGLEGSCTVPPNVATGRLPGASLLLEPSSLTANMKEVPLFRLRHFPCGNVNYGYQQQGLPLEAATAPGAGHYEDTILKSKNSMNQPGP
T3 sequence (P52333 781-1124): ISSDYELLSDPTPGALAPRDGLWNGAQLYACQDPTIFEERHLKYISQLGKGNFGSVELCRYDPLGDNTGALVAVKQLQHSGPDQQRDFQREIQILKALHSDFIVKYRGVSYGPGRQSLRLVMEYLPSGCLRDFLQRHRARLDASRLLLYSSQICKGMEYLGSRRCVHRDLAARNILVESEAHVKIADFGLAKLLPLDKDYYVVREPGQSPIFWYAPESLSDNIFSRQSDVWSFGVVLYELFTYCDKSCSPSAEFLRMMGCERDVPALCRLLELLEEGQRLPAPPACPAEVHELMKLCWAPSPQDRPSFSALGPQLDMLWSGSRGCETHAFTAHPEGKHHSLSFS
T1 sequence (P23458 849-1154): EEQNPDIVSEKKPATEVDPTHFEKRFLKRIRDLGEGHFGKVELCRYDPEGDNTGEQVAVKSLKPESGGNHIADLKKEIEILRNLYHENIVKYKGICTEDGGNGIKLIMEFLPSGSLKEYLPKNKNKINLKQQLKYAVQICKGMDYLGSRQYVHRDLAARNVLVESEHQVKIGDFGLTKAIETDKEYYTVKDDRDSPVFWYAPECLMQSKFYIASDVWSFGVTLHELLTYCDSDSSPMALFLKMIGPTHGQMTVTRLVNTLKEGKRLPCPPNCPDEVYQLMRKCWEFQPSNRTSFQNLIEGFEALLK
Sequence of TYK2 (P29597 whole entry): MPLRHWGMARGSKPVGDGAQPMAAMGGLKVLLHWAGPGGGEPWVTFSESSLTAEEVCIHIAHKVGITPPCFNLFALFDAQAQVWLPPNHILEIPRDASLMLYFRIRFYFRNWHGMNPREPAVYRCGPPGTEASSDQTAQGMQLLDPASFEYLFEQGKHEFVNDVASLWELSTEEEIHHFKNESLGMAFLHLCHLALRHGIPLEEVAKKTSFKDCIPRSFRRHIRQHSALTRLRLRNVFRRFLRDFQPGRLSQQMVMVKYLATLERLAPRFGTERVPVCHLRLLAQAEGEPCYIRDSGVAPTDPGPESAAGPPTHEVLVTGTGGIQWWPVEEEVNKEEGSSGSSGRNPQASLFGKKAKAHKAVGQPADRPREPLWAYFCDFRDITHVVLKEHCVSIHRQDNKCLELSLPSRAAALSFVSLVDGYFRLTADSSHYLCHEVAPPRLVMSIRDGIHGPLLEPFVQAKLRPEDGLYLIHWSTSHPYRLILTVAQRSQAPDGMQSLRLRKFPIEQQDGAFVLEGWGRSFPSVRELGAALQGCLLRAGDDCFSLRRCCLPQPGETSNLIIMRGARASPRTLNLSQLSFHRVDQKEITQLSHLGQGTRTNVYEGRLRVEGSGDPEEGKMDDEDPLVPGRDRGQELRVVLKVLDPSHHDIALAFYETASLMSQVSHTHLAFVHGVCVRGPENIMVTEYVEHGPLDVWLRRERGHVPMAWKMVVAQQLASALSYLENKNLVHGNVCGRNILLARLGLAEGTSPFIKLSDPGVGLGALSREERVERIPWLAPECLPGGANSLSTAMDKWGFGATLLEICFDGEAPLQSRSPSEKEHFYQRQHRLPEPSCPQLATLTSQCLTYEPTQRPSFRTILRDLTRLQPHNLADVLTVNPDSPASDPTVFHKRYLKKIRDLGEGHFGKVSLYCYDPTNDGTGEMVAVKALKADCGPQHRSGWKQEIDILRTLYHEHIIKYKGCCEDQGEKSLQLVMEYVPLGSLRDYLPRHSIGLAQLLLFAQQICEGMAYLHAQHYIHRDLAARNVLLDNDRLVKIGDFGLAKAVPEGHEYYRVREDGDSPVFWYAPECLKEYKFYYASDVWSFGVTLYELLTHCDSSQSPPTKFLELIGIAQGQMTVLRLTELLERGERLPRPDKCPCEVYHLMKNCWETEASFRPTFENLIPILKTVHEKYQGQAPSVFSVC
T2 sequence (O60674 828-1132): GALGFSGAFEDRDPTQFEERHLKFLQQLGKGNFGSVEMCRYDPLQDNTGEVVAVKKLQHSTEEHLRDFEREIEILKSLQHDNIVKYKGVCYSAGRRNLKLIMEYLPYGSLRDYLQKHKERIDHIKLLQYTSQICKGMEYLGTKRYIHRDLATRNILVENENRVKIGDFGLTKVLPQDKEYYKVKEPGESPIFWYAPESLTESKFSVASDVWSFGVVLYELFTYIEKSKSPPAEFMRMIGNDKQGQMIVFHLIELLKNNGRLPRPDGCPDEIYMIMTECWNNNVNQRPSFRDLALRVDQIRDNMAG

As to `Cc1nc(S(=O)(=O)N2CCC(CC(=O)Nc3ccc4cc3CCc3cncc(c3)Nc3ncc(Cl)c(n3)N4)CC2)cn1C` [Example A230, N-[6-Chloro-2,4,8,18,22-pentaazatetracyclo[14.3.1.1(3,7).1(9,13)]docosa-1(20),3(22),4,6,9(21),10,12,16,18-nonaen-12-yl]-2-{1-[(1,2-dimethyl-1H-imidazol-4-yl)sulfonyl]piperidin-4-yl}acetamide bis(trifluoroacetate)], the IC50 was 15 nM in test [1] (setting [5]), 130 nM in test [2] (setting [6]), more than 400 nM in test [3] (setting [7]) and 255 nM at TYK2. In addition, in test [4] (setting [8]), the “ALK % of inhibition at a concentration of 500 nM or 1 mM” value (“ALK % of inhibition” for short) was 50%.
Turning to `COc1ccccc1C(=O)Nc1ccc2cc1CCc1cccc(c1)Nc1ncc(Cl)c(n1)N2` [Example B36, N-[6-Chloro-2,4,8,22-tetraazatetracyclo[14.3.1.1(3,7).1(9,13)]docosa-1(20), 3(22),4,6,9(21),10,12,16,18-nonaen-12-yl]-2-methoxybenzamide trifluoroacetate], the IC50 in test [1] (Table B1) was 13 nM; in test [2] (Table B1), 7.7 nM; in test [3] (Table B1) it was 42 nM; against TYK2 (Table B1), 21 nM; in test [4], more than 1000 nM.
With `CC(C)C(=O)Nc1ccc2cc1CCc1cccc(c1)Nc1ncc(Cl)c(n1)N2` [Example B55, N-[6-Chloro-2,4,8,22-tetraazatetracyclo[14.3.1.1(3,7).1(9,13)]docosa-1(20), 3(22),4,6,9(21),10,12,16,18-nonaen-12-yl]-2-methylpropanamide trifluoroacetate], the IC50 in test [1] (Table B1) turned out to be 12 nM; in test [2] (Table B1), 2.7 nM; in test [3] (Table B1), 1.1 nM; against TYK2 (Table B1), 23 nM; in test [4] it was 930 nM.
In the case of `N#Cc1ccnc(N2CCC(CC(=O)Nc3ccc4cc3CCc3cncc(c3)Nc3ncc(Cl)c(n3)N4)CC2)c1` [Example A178, N-[6-Chloro-2,4,8,18,22-pentaazatetracyclo[14.3.1.1(3,7).1(9,13)]docosa-1(20),3(22),4,6,9(21),10,12,16,18-nonaen-12-yl]-2-[1-(4-cyanopyridin-2-yl)piperidin-4-yl]acetamide tris(trifluoroacetate)], the 50% inhibitory concentration (IC50) in test [1] (setting [5]) is 68 nM; in test [2] (setting [6]), more than 200 nM; in test [3] (setting [7]), more than 200 nM; against TYK2, more than 200 nM. Moreover, the “ALK % of inhibition” value in test [4] (setting [8]) worked out at 26%.
Take `Cc1noc(C)c1S(=O)(=O)N1CCC(CC(=O)Nc2ccc3cc2CCc2cncc(c2)Nc2ncc(Cl)c(n2)N3)CC1` [Example A231, N-[6-chloro-2,4,8,18,22-pentaazatetracyclo[14.3.1.1(3,7).1(9,13)]docosa-1(20),3(22),4,6,9(21),10,12,16,18-nonaen-12-yl]-2-{1-[(3,5-dimethylisoxazol-4-yl)sulfonyl]piperidin-4-yl}acetamide bis(trifluoroacetate)]: the concentration for half-maximal inhibition (IC50) was 9.7 nM in test [1] (setting [5]), 85 nM in test [2] (setting [6]), more than 400 nM in test [3] (setting [7]) and 98 nM against TYK2. The “ALK % of inhibition” value in test [4] (setting [8]) is 46%.
Turning to `N#Cc1c(Cl)cccc1N1CCC(CC(=O)Nc2ccc3cc2CCc2cncc(c2)Nc2ncc(Cl)c(n2)N3)CC1` [Example A222, 2-[1-(3-Chloro-2-cyanophenyl)piperidin-4-yl]-N-[6-chloro-2,4,8,18,22-pentaazatetracyclo[14.3.1.1(3,7).1(9,13)]docosa-1(20),3(22),4,6,9(21),10,12,16,18-nonaen-12-yl]acetamide tris(trifluoroacetate)], the IC50 in test [1] (setting [5]) is 3.2 nM; in test [2] (setting [6]), more than 200 nM; in test [3] (setting [7]), more than 200 nM; on TYK2 it was more than 200 nM. Moreover, the “ALK % of inhibition” value in test [4] (setting [8]) was 5.6%.
For the compound `O=C(Nc1ccc2cc1CCc1cccc(c1)Nc1ncc(Cl)c(n1)N2)C1CCN(C(=O)NC2CCCC2)CC1` [Example A61, N(4)-[6-Chloro-2,4,8,22-tetraazatetracyclo[14.3.1.1(3,7).1(9,13)]docosa-1(20),3(22),4,6,9(21),10,12,16,18-nonaen-12-yl]-N(1)-cyclopentylpiperidine-1,4-dicarboxamide trifluoroacetate], the 50% inhibitory concentration (IC50) stood at 29 nM in test [1] (setting [5]), 11 nM in test [2] (setting [6]), 16 nM in test [3] (setting [7]) and 22 nM against TYK2. Moreover, the “ALK % of inhibition” value in test [4] (setting [8]) came out at 41%.
As to `Cc1cc(C(=O)N2CCCC(C(=O)Nc3ccc4cc3CCc3cccc(c3)Nc3ncc(Cl)c(n3)N4)C2)no1` (stereo not shown) [Example A121, N-[6-Chloro-2,4,8,22-tetraazatetracyclo[14.3.1.1(3,7).1(9,13)]docosa-1(20),3(22),4,6,9(21),10,12,16,18-nonaen-12-yl]-1-[(5-methylisoxazol-3-yl)carbonyl]piperidine-3-carboxamide trifluoroacetate], the IC50 in test [1] (setting [5]) worked out at 14 nM; in test [2] (setting [6]), 4.2 nM; in test [3] (setting [7]), 11 nM; against TYK2, 14 nM. In test [4] (setting [8]), the “ALK % of inhibition” value is recorded as 41%.
With `Cn1ccc(C(=O)N2CC[C@H](NC(=O)Nc3ccc4cc3CCc3cccc(c3)Nc3ncc(Cl)c(n3)N4)C2)n1` [Example B232, N-[6-Chloro-2,4,8,22-tetraazatetracyclo[14.3.1.1(3,7).1(9,13)]docosa-1(20),3(22),4,6,9(21),10,12,16,18-nonaen-12-yl]-N′-{(3S)-1-[(1-methyl-1H-pyrazol-3-yl)carbonyl]pyrrolidin-3-yl}urea bis(trifluoroacetate)], the IC50 in test [1] (Table B1) came out at 4 nM; in test [2] (Table B1) it was 11 nM; in test [3] (Table B1) it was 72 nM; against TYK2 (Table B1) it was 26 nM. For the same compound, the “ALK % of inhibition” value in test [4] (setting [9]) is on record as 10%.
In the case of `O=C(Nc1ccc2cc1CCc1cncc(c1)Nc1ncc(Cl)c(n1)N2)N[C@H]1CCN(C(=O)c2ccno2)C1` [Example B271, N-[6-Chloro-2,4,8,18,22-pentaazatetracyclo[14.3.1.1(3,7).1(9,13)]docosa-1(20),3(22),4,6,9(21),10,12,16,18-nonaen-12-yl]-N′-[(3S)-1-(isoxazol-5-ylcarbonyl)pyrrolidin-3-yl]urea bis(trifluoroacetate)], the concentration for half-maximal inhibition (IC50) in test [1] (Table B1) was 8.7 nM; in test [2] (Table B1), 440 nM; in test [3] (Table B1) it was more than 10000 nM; against TYK2 (Table B1), 847 nM. Also, in test [4] (setting [9]), the “ALK % of inhibition” value stood at 10%.
Take `CC(C)NC(=O)Nc1ccc2cc1CCc1cccc(c1)Nc1ncc(Cl)c(n1)N2` [Example B116, N-[6-Chloro-2,4,8,22-tetraazatetracyclo[14.3.1.1(3,7).1(9,13)]docosa-1(20), 3(22),4,6,9(21),10,12,16,18-nonaen-12-yl]-N′-isopropylurea trifluoroacetate]: the IC50 in test [1] (Table B1) is 3.1 nM; in test [2] (Table B1), 3.5 nM; in test [3] (Table B1), 26 nM; at TYK2 (Table B1) it was 10 nM. Besides, in test [4] (setting [9]), the “ALK % of inhibition” value is listed as 20%.
For `CC(C)S(=O)(=O)N1CCC(CC(=O)Nc2ccc3cc2CCc2cccc(c2)Nc2ncc(Cl)c(n2)N3)CC1` [Example A82, N-[6-Chloro-2,4,8,22-tetraazatetracyclo[14.3.1.1(3,7).1(9,13)]docosa-1(20),3(22),4,6,9(21),10,12,16,18-nonaen-12-yl]-2-[1-(isopropylsulfonyl)piperidin-4-yl]acetamide trifluoroacetate], the 50% inhibitory concentration (IC50) was 7.3 nM in test [1] (setting [5]), 3.7 nM in test [2] (setting [6]), 17 nM in test [3] (setting [7]) and 13 nM against TYK2. The “ALK % of inhibition” value in test [4] (setting [8]) was determined as 31%.
Consider `O=S(=O)(Nc1ccc2cc1CCc1cccc(c1)Nc1ncc(Cl)c(n1)N2)c1ccc(Cl)cc1` [Example B139, 4-Chloro-N-[6-chloro-2,4,8,22-tetraazatetracyclo[14.3.1.1(3,7).1(9,13)]docosa-1(20),3(22),4,6,9(21),10,12,16,18-nonaen-12-yl]benzenesulfonamide trifluoroacetate], for which the 50% inhibitory concentration (IC50) was 0.5 nM in test [1] (Table B1); 0.1 nM in test [2] (Table B1); 5.1 nM in test [3] (Table B1); 0.84 nM on TYK2 (Table B1); 290 nM in test [4].
As to `N#Cc1ccccc1S(=O)(=O)Nc1ccc2cc1CCc1cccc(c1)Nc1ncc(Cl)c(n1)N2` [Example B155, N-[6-Chloro-2,4,8,22-tetraazatetracyclo[14.3.1.1(3,7).1(9,13)]docosa-1(20), 3(22),4,6,9(21),10,12,16,18-nonaen-12-yl]-2-cyanobenzenesulfonamide trifluoroacetate], the IC50 in test [1] (Table B1) was 1.3 nM; in test [2] (Table B1), 2.4 nM; in test [3] (Table B1), 40 nM; on TYK2 (Table B1) it was 2.2 nM; in test [4], more than 1000 nM.

In general, IC50 refers to the concentration that inhibits the measured activity by half.
